The source of these data is patent US10022453B2 (BAYER PHARMA AKTIENGESELLSCHAFT, priority 2013, dated 2018).

SMILES strings stand for the structures. pIC50: −log10 of the molar value.

One data set has as its system NCI-H292. Nature of the data set: Cytotoxic effects, MTT assay. Conditions: Homo sapiens, 72 h incubation. The format is cell-based. The procedure: The cells are cultivated by a standard method, as indicated in the […] (ATCC) for the respective cell lines.
At the end of the selected incubation time, the MTT reagent is incubated with the cells for 4 h, followed by lysis of the cells overnight by addition of the detergent. […] The proliferation of cells which were not treated with test substance but were otherwise identically treated was defined as the 100% figure.

Data set [1] deals with T1, human kinesin spindle protein KSP/Eg5 (Homo sapiens, UniProt P52732).
T1 construct: The motor domain of the human kinesin spindle protein KSP/Eg5; purchased tebu-bio/Cytoskeleton Inc 027EG01-XL
T1 sequence (P52732 18-359 limits assumed): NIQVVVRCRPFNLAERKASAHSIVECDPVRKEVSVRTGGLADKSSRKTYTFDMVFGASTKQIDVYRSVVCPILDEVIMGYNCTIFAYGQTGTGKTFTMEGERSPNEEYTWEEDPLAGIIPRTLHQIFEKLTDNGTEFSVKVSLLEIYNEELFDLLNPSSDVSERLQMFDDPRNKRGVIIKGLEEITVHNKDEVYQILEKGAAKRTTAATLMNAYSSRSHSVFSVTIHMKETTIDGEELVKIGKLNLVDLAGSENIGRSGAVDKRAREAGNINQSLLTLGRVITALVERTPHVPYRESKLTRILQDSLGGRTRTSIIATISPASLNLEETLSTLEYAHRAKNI
Briefly: Inhibition of the kinesin spindle protein KSP/Eg5 (ATPase, malachite green). Format: biochemical. Particulars: 10 nM KSP motor domain, 500 μM ATP, 2 h RT. The method, boiled down: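 KSP/Eg5 motor domain (10 nM) preincubated 5 min at RT with 50 μg/ml taxol-stabilized bovine or porcine microtubules in 15 mM PIPES pH 6.8, 5 mM MgCl2, 10 mM DTT. IC50 = mean of three experiments.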

Data set [2] can be described thus: Cell permeability, flux assay using Caco-2 cells. Particulars: human, Caco-2.

In turn, `CC(C)(C)[C@H](c1nc(-c2cc(F)ccc2F)cn1Cc1ccccc1)N(CCCN)C(=O)CSCCC(NC(=O)CCOCCOCCOCCOCCNC(=O)CCN1C(=O)CC(SC[C@H](N)C(=O)O)C1=O)C(=O)O.O=C(O)C(F)(F)F.O=C(O)C(F)(F)F` (mixture of isomers) [Example 140, N-[19-(3(R/S)-[{(2R)-2-Amino-2-carboxyethyl]sulphanyl}-2,5-dioxopyrrolidin-1-yl)-17-oxo-4,7,10,13-tetraoxa-16-azanonadecan-1-oyl]-R/S-{2-[(3-aminopropyl){(1R)-1-[1-benzyl-4-(2,5-difluorophenyl)-1H-imidazol-2-yl]-2,2-dimethylpropyl}amino]-2-oxoethyl}homocysteine/trifluoroacetic acid (1:2)] yielded an IC50 in the data set with NCI-H292 not below 500 nM. This molecule also showed a negative logarithm of the IC50 (pIC50) in data set [1] of 8.60. Besides, in data set [2], the Papp B→A at 2 h stood at 0.17 ×10⁻⁶ cm/s and the efflux ratio at 2 h stood at 1.
In the data set on NCI-H292, `CC(C)(C)[C@H](c1nn(-c2cc(F)ccc2F)cc1Cc1ccccc1)N(CCCN)C(=O)CO` [Example 96, N-(3-Aminopropyl)-N-{(1R)-1-[4-benzyl-1-(2,5-difluorophenyl)-1H-pyrazol-3-yl]-2,2-dimethylpropyl}-2-hydroxyacetamide] yielded an IC50 of 2.09 nM. The pIC50 in data set [1] was 8.11. Besides, in data set [2], the basolateral-to-apical permeability (Papp B→A) at 2 h was 28.5 ×10⁻⁶ cm/s and the efflux ratio at 2 h was determined as 16.
In turn, `CC(C)(C)[C@H](c1nc(-c2cc(F)ccc2F)cn1Cc1ccccc1)N(CC[C@H](N)C(=O)NCCC(=O)NCCN1C(=O)CC(SC[C@H](N)C(=O)O)C1=O)C(=O)CO.O=C(O)C(F)(F)F` (stereo partly drawn) [Example 130, S-(1-{2-[(N-{(2S)-2-Amino-4-[{(1R)-1-[1-benzyl-4-(2,5-difluorophenyl)-1H-imidazol-2-yl]-2,2-dimethylpropyl}(glycoloyl)amino]butanoyl}-beta-alanyl)amino]ethyl}-2,5-dioxopyrrolidin-3-yl)-L-cysteine/trifluoroacetic acid (1:1)] had an IC50 with NCI-H292 of 178 nM. In data set [1], the pIC50 was 8.78. In addition, in data set [2], the apparent permeability from basolateral to apical (Papp B→A) at 2 h is 1 ×10⁻⁶ cm/s and the efflux ratio at 2 h was 6.7.
On to `CC(C)(C)[C@H](c1nn(-c2cc(F)ccc2F)cc1Cc1ccccc1)N(CC[C@H](N)C(=O)NCCNC(=O)CN1C(=O)CC(SC[C@H](N)C(=O)O)C1=O)C(=O)CO.O=C(O)C(F)(F)F` (stereo partly drawn) [Example 131, S-[1-(2-{[2-({(2S)-2-Amino-4-[{(1R)-1-[4-benzyl-1-(2,5-difluorophenyl)-1H-pyrazol-3-yl]-2,2-dimethylpropyl}(glycoloyl)amino]butanoyl}amino)ethyl]amino}-2-oxoethyl)-2,5-dioxopyrrolidin-3-yl]-L-cysteine/trifluoroacetic acid (1:1)], for which the IC50 in the data set with NCI-H292 was not below 500 nM. In data set [1], this molecule had a pIC50 of 8.91. Further, in data set [2], the basolateral-to-apical permeability (Papp B→A) at 2 h came to 0.9 ×10⁻⁶ cm/s and the efflux ratio at 2 h turned out to be 10.
With `CSc1ccc(C(=O)N(CCCN)[C@@H](c2cc(-c3cc(F)ccc3F)cn2Cc2ccccc2)C(C)(C)C)cc1` [Example 220, Trifluoroacetic acid/N-(3-aminopropyl)-N-{(1R)-1-[1-benzyl-4-(2,5-difluorophenyl)-1H-pyrrol-2-yl]-2,2-dimethylpropyl}-4-(methylsulphanyl)benzamide (1:1)], the concentration for half-maximal inhibition (IC50) in the data set on NCI-H292 is 0.197 nM. This molecule also gave a negative-log IC50 (pIC50) in data set [1] of 8.84.
In turn, `C[C@H](O)C(=O)N(CCCN)[C@@H](c1cc(-c2cc(F)ccc2F)cn1Cc1ccccc1)C(C)(C)C` [Example 221, Trifluoroacetic acid/(2S)—N-(3-aminopropyl)-N-{(1R)-1-[1-benzyl-4-(2,5-difluorophenyl)-1H-pyrrol-2-yl]-2,2-dimethylpropyl}-2-hydroxypropanamide (1:1)] returned a half-inhibitory concentration (IC50) in the data set on NCI-H292 of 0.1 nM. In data set [1], this molecule had a pIC50 of 9.95.
Consider `CSCC(=O)N(CCCN)[C@@H](c1cc(-c2cc(F)ccc2F)cn1Cc1ccccc1)C(C)(C)C` [Example 222, Trifluoroacetic acid/N-(3-aminopropyl)-N-{(1R)-1-[1-benzyl-4-(2,5-difluorophenyl)-1H-pyrrol-2-yl]-2,2-dimethylpropyl}-2-(methylsulphanyl)acetamide (1:1)], for which the IC50 in the data set on NCI-H292 amounted to 3.3 nM. Moreover, the pIC50 in data set [1] was 8.80.
Regarding `C[C@H](O)C(=O)N(CCCN)[C@@H](c1nn(-c2cc(F)ccc2F)cc1Cc1ccccc1)C(C)(C)C` [Example 223, Trifluoroacetic acid/(2S)—N-(3-aminopropyl)-N-{(1R)-1-[4-benzyl-1-(2,5-difluorophenyl)-1H-pyrazol-3-yl]-2,2-dimethylpropyl}-2-hydroxypropanamide (1:1)], the 50% inhibitory concentration (IC50) in the data set on NCI-H292 turned out to be 0.0077 nM. In data set [1], the negative logarithm of the IC50 (pIC50) is 9.54.
The molecule `COC(=O)CCC(=O)N(CCCN)[C@@H](c1cc(-c2cc(F)ccc2F)cn1Cc1ccccc1)C(C)(C)C` [Example 224, Trifluoroacetic acid/methyl 4-[(3-aminopropyl){(1R)-1-[1-benzyl-4-(2,5-difluorophenyl)-1H-pyrrol-2-yl]-2,2-dimethylpropyl}amino]-4-oxobutanoate (1:1)] displayed a 50% inhibitory concentration (IC50) in the data set with NCI-H292 of 0.00337 nM. For the same molecule, in data set [1], the pIC50 is 9.71.
`CC(C)(C)[C@H](c1cc(-c2cc(F)ccc2F)cn1Cc1ccccc1)N(CCCN)C(=O)CCC(=O)O` [Example 225, 4-[(3-Aminopropyl) {(1R)-1-[1-benzyl-4-(2,5-difluorophenyl)-1H-pyrrol-2-yl]-2,2-dimethylpropyl}amino]-4-oxobutanoic acid/trifluoroacetic acid (1:1)]: in the data set with NCI-H292, the concentration for half-maximal inhibition (IC50) was 1.51 nM. In data set [1], this molecule showed a pIC50 of 9.37.
Consider `CC(C)(C)[C@H](c1nn(-c2cc(F)ccc2F)cc1Cc1ccccc1)N(CCCN)C(=O)c1ccc(N)cc1` [Example 227, Trifluoroacetic acid/4-amino-N-(3-aminopropyl)-N-{(1R)-1-[4-benzyl-1-(2,5-difluorophenyl)-1H-pyrazol-3-yl]-2,2-dimethylpropyl}benzamide (2:1)], for which the IC50 in the data set with NCI-H292 turned out to be 1.82 nM. This molecule also gave a negative-log IC50 (pIC50) in data set [1] of 8.75.
The like results for `CC(=O)N[C@@H](CSCC(=O)N(CCCN)[C@@H](c1cc(-c2cc(F)ccc2F)cn1Cc1ccccc1)C(C)(C)C)C(=O)O` [Example 228, N-Acetyl-S-{2-[(3-aminopropyl){(1R)-1-[1-benzyl-4-(2,5-difluorophenyl)-1H-pyrrol-2-yl]-2,2-dimethylpropyl}amino]-2-oxoethyl}-L-cysteine/trifluoroacetic acid (1:1)] were, in that order, 5.36 nM and 8.51.
In the data set with NCI-H292, `CC(=O)N[C@@H](CSCC(=O)N(CCCNC(=O)[C@H](C)N)[C@@H](c1cc(-c2cc(F)ccc2F)cn1Cc1ccccc1)C(C)(C)C)C(=O)O` [Example 229, N-acetyl-S-[2-([3-(L-alanylamino)propyl]{(1R)-1-[1-benzyl-4-(2,5-difluorophenyl)-1H-pyrrol-2-yl]-2,2-dimethylpropyl}amino)-2-oxoethyl]-L-cysteine/trifluoroacetic acid (1:1)] returned an IC50 not below 500 nM. The pIC50 in data set [1] is 8.35.
For `CC(C)(C)[C@H](c1cc(-c2cc(F)ccc2F)cn1Cc1ccccc1)N(CCCN)C(=O)[C@@H]1CCCO1` [Example 230, Trifluoroacetic acid/(2S)—N-(3-aminopropyl)-N-{(1R)-1-[1-benzyl-4-(2,5-difluorophenyl)-1H-pyrrol-2-yl]-2,2-dimethylpropyl}tetrahydrofuran-2-carboxamide (1:1)] the same measures were 0.0121 nM and 8.47.
`CC(C)(C)[C@H](c1cc(-c2cc(F)ccc2F)cn1Cc1ccccc1)N(CCCN)C(=O)CSCCC(=O)O` [Example 231, 3-({2-[(3-Aminopropyl){(1R)-1-[1-benzyl-4-(2,5-difluorophenyl)-1H-pyrrol-2-yl]-2,2-dimethylpropyl}amino]-2-oxoethyl}sulphanyl)propanoic acid/trifluoroacetic acid (1:1)] showed a concentration for half-maximal inhibition (IC50) with NCI-H292 of 0.918 nM. The negative logarithm of the IC50 (pIC50) in data set [1] is 8.78.
`CC(C)(C)[C@H](c1cc(-c2cc(F)ccc2F)cn1Cc1ccccc1)N(CCCN)C(=O)c1ccc(N)cc1` [Example 233, Trifluoroactic acid/4-amino-N-(3-aminopropyl)-N-{(1R)-1-[1-benzyl-4-(2,5-difluorophenyl)-1H-pyrrol-2-yl]-2,2-dimethylpropyl}benzamide (2:1)]: the concentration for half-maximal inhibition (IC50) with NCI-H292 was 0.963 nM. For the same molecule, the pIC50 in data set [1] is 8.41.
`CC(C)(C)[C@H](c1cc(-c2cc(F)ccc2F)cn1Cc1ccccc1)N(CC[C@H](N)C(=O)NCCCCCCN1C(=O)CC(SC[C@H](N)C(=O)O)C1=O)C(=O)CO` (stereo partly drawn) [Example 249, S-{1-[6-({(2S)-2-Amino-4-[{(1R)-1-[1-benzyl-4-(2,5-difluorophenyl)-1H-pyrrol-2-yl]-2,2-dimethylpropyl}(glycoloyl)amino]butanoyl}amino)hexyl]-2,5-dioxopyrrolidin-3-yl}-L-cysteine/trifluoroacetic acid (1:1)]: in the data set with NCI-H292, half-maximal inhibition (IC50) was put at 26.6 nM. The same molecule had a negative-log IC50 (pIC50) in data set [1] of 9.04.
